# Read-outs that look alike come from different tables or passages of the source.
# Tests used:
# [1] = Single dose PO or IV plasma pharmacokinetics and tolerability in BALB/c mice; conditions: BALB/c mice; for tolerability of single escalating oral doses: 20, 60 or 180 mg/kg single oral dose; for F% (oral bioavailability): oral vs IV (7 mg/kg) prodrug exposure, printed on the 20 mg/kg oral lines
# [2] = 5-day oral tolerability study with terminal pharmacokinetics in BALB/c mice; format: in vivo; conditions: 80 mg/kg or 100 mg/kg daily PO
# Method: Fig 3 Oral RVn prodrugs maintain high serum levels after repeated dosing in mice and hamsters. Multiple-dose oral tolerability and pharmacokinetics in mice and Syrian hamsters: (A and B) 5-day oral tolerability study in BALB/c mice with pharmacokinetics obtained after the final dose. Male 20–22 g mice were given the indicated drugs at (A) 80 mg/kg or (B) 100 mg/kg PO daily in 0.1 M sodium carbonate/bicarbonate pH 9 for 5 days. Plasma was obtained after the last dose at 1, 3, 6, and 12 h (In Vivo Technologies, Moffatt Field, CA). (C) 7-day oral tolerability study in Syrian hamsters with pharmacokinetics obtained after the final dose. […] All plasma samples were analyzed to determine prodrug levels (Aliri Bio, Colorado Springs, CO).
# After fortification, 50 µL of plasma was crashed with 400 µL of methanol containing 10 ng/mL of the internal standard (V2066). One hundred fifty microliters of the supernatant was removed and diluted with 150 µL of water in a clean 96 well injection plate.
# Chromatography for the prodrugs was performed on a Raptor Biphenyl (2.1 × 50) column at a flow rate of 0.5 mL/min. A gradient method starting at 60% B (0.1% formic acid in 90:10 methanol:acetonitrile) for 30 s and then ramping to 95% B over 2.5 min. This composition was held for 1.0 min before being returned to starting conditions and re-equilibration to 40% A (10 mM ammonium formate with 0.2% formic acid in water).
# Oral pharmacokinetic studies were carried out at In Vivo Technologies (Moffatt Field, CA) in male BALB/c mice, 22–23 g under IACUC protocol number IVT-11–010Y12 (LifeSource Animal Care and Use Committee). […] Blood was obtained by facial vein or terminal cardiac puncture at the indicated times and plasma was frozen for analysis. Similar procedures were followed for 5-day tolerability and terminal dose pharmacokinetic studies in mice at oral daily doses of 80 or 100 mg/kg.
# [3] = test system: Huh7.5 cells; design: method as in PMID 37040439; conditions: Huh7.5, CellTiter-Glo, previously published, identical conditions ref 7; cited from earlier work
# [4] = test system: Vero-TMPRSS2 cells; assay: Cell viability assay (CellTiter-Glo), Vero-TMPRSS2; format: cell-based, African green monkey; conditions: 48 h incubation
# Method: Cell viability assays (Table 1) were performed as previously described ([7]). Cells were cultured and seeded as per in vitro antiviral studies in opaque walled 96-well cell culture plates and incubated overnight for Huh7.5, A2T2-A549, and Vero-E6-TMPRSS2 cells and for 2 days for Calu-3 cells. Compounds or controls were added at the indicated concentrations in a total volume of 100 µL, and cells were incubated for 48 h. An equal volume of CellTiter-Glo reagent (Promega, Cat. #G7570) or CellTiter-Glo 2.0 reagent (Promega, Cat. #G9241) was added and mixed, and luminescence was recorded on a Veritas Microplate Luminometer (Turner BioSystems) or a Spark Multimode plate reader (Tecan) according to manufacturer instructions. Percent viability was normalized to DMSO controls, and CC50 values were derived from best fit curves calculated in Prism 10.
# [5] = test system: SARS-CoV-2 isolate USA-WA1/2020; conditions: for Relative activity vs RVn (RVN EC50/Test Compound EC50) / SI (CC50/EC50): A2T2-A549; for EC50: read-out: EC50 μM ± SD; for EC50 / EC90: A2T2-A549 cells, 48 hpi; for EC90: read-out: EC90 μM ± SD
# [6] = test system: SARS-CoV-2 isolate USA-WA1/2020; conditions: for Relative activity vs RVn (RVN EC50/Test Compound EC50) / SI (CC50/EC50): Vero-TMPRSS2; for EC50: read-out: EC50 μM ± SD; for EC50 / EC90: Vero-TMPRSS2 cells, 32 hpi; for EC90: read-out: EC90 μM ± SD
# [7] = test system: A2T2-A549 cells; assay: Cell viability assay (CellTiter-Glo), A2T2-A549; conditions: A2T2-A549, CellTiter-Glo, 48 h incubation
# [8] = test system: Calu-3 cells; design: method as in PMID 37040439; conditions: Calu-3, CellTiter-Glo, previously published, identical conditions ref 7; cited from earlier work
# [9] = test system: SARS-CoV-2 isolate USA-WA1/2020; assay: microbe, parasite or virus in culture; format: cell-based; conditions: for Relative activity vs RVn (RVN EC50/Test Compound EC50): Calu-3; for EC50 / EC90: Calu-3 cells, 44–48 hpi
# [10] = test system: SARS-CoV-2 isolate USA-WA1/2020; design: method as in PMID 37040439; conditions: Calu-3, dotted lines of Fig. 2 and 3 ref 7; read-out: in vitro EC90 for SARS-CoV-2 infection in Calu-3 cells; cited from earlier work
# [11] = test system: SARS-CoV-2 isolate USA-WA1/2020; conditions: for Relative activity vs RVn (RVN EC50/Test Compound EC50) / SI (CC50/EC50): Huh7.5; for EC50: read-out: EC50 μM ± SD; for EC50 / EC90: Huh7.5 cells, 48 hpi; for EC90: read-out: EC90 μM ± SD
smiles,measurement,setting,value
CCCCCCCCC=CCCCCCCCCOCC(COP(=O)(O)OCC1OC(C#N)(c2ccc3c(N)ncnn23)C(O)C1O)OCc1ccc(OC)c(F)c1 (stereo not shown) [Compound V2053],tolerability of single escalating oral doses,[1],well tolerated with no appreciable adverse effects
same,AUC,"[1]; IV, 7 mg/kg, plasma",9.58 µM·h
same,Cmax,"[1]; IV, 7 mg/kg, plasma",30.2 µM
same,T1/2,"[1]; IV, 7 mg/kg, plasma",0.29 h
same,AUC,"[1]; Oral, 20 mg/kg",13.60 µM·h
same,CL/F,"[1]; Oral, 20 mg/kg",28 mL/min/kg
same,Cmax,"[1]; Oral, 20 mg/kg",1.78 µM
same,T1/2,"[1]; Oral, 20 mg/kg",6.04 h
same,Vd/F,"[1]; Oral, 20 mg/kg",14.60 L/kg
same,AUC,"[1]; Oral, 60 mg/kg",53.10 µM·h
same,CL/F,"[1]; Oral, 60 mg/kg",22.3 mL/min/kg
same,Cmax,"[1]; Oral, 60 mg/kg",7.66 µM
same,T1/2,"[1]; Oral, 60 mg/kg",3.44 h
same,Vd/F,"[1]; Oral, 60 mg/kg",6.67 L/kg
same,AUC,"[1]; Oral, 180 mg/kg",90.80 µM·h
same,CL/F,"[1]; Oral, 180 mg/kg",30.2 mL/min/kg
same,Cmax,"[1]; Oral, 180 mg/kg",12.5 µM
same,T1/2,"[1]; Oral, 180 mg/kg",7.06 h
same,Vd/F,"[1]; Oral, 180 mg/kg",18.50 L/kg
same,F% (oral bioavailability),[1],51.0%
same,tolerability of once-daily oral doses for 5 days,[2],no adverse clinical effects were noted
same,CC50,[3],> 100000 nM
same,CC50,[4],> 100000 nM
same,Relative activity vs RVn (RVN EC50/Test Compound EC50),[5],7.3×
same,SI (CC50/EC50),[5],>243
same,EC50,[5],0.41 ± 0.04 µM
same,EC90,[5],0.811 ± 0.059 µM
same,Relative activity vs RVn (RVN EC50/Test Compound EC50),[6],8.0×
same,SI (CC50/EC50),[6],>746
same,EC50,[6],0.134 ± 0.05 µM
same,EC90,[6],0.367 ± 0.139 µM
same,CC50,[7],> 100000 nM
same,CC50,[8],58700 nM
same,Relative activity vs RVn (RVN EC50/Test Compound EC50),[9],9.0×
same,EC50,[9],0.074 ± 0.014 µM
same,EC90,[9],0.153 ± 0.047 µM
same,EC90,[10],154 nM
same,Relative activity vs RVn (RVN EC50/Test Compound EC50),[11],28.9×
same,SI (CC50/EC50),[11],">2,128"
same,EC50,[11],0.047 ± 0.015 µM
same,EC90,[11],0.136 ± 0.058 µM
CCCCCCCCCCCCCCCCCCOCC(COP(=O)(O)OC[C@H]1O[C@@](C#N)(c2ccc3c(N)ncnn23)[C@H](O)[C@@H]1O)OCc1ccc(C#N)cc1 (stereo partly shown) [Compound V2067],tolerability of single escalating oral doses,[1],well tolerated with no appreciable adverse effects
same,AUC,"[1]; IV, 7 mg/kg, plasma",36.16 µM·h
same,Cmax,"[1]; IV, 7 mg/kg, plasma",116 µM
same,T1/2,"[1]; IV, 7 mg/kg, plasma",0.23 h
same,AUC,"[1]; Oral, 20 mg/kg",64.70 µM·h
same,CL/F,"[1]; Oral, 20 mg/kg",6.22 mL/min/kg
same,Cmax,"[1]; Oral, 20 mg/kg",8.83 µM
same,T1/2,"[1]; Oral, 20 mg/kg",4.06 h
same,Vd/F,"[1]; Oral, 20 mg/kg",2.18 L/kg
same,AUC,"[1]; Oral, 60 mg/kg",154.00 µM·h
same,CL/F,"[1]; Oral, 60 mg/kg",7.5 mL/min/kg
same,Cmax,"[1]; Oral, 60 mg/kg",24.9 µM
same,T1/2,"[1]; Oral, 60 mg/kg",6.83 h
same,Vd/F,"[1]; Oral, 60 mg/kg",4.38 L/kg
same,AUC,"[1]; Oral, 180 mg/kg",332.00 µM·h
same,CL/F,"[1]; Oral, 180 mg/kg",8.17 mL/min/kg
same,Cmax,"[1]; Oral, 180 mg/kg",41 µM
same,T1/2,"[1]; Oral, 180 mg/kg",12.40 h
same,Vd/F,"[1]; Oral, 180 mg/kg",8.74 L/kg
same,F% (oral bioavailability),[1],57.0%
same,tolerability of once-daily oral doses for 5 days,[2],no adverse clinical effects were noted
same,CC50,[3],47200 nM
same,CC50,[4],57000 nM
same,Relative activity vs RVn (RVN EC50/Test Compound EC50),[5],14.1×
same,SI (CC50/EC50),[5],386
same,EC50,[5],0.213 ± 0.026 µM
same,EC90,[5],0.441 ± 0.071 µM
same,Relative activity vs RVn (RVN EC50/Test Compound EC50),[6],23.4×
same,SI (CC50/EC50),[6],"1,239"
same,EC50,[6],0.046 ± 0.014 µM
same,EC90,[6],0.107 ± 0.02 µM
same,CC50,[7],82300 nM
same,CC50,[8],60200 nM
same,Relative activity vs RVn (RVN EC50/Test Compound EC50),[9],12.5×
same,EC50,[9],0.053 ± 0.018 µM
same,EC90,[9],0.172 ± 0.14 µM
same,EC90,[10],82 nM
same,Relative activity vs RVn (RVN EC50/Test Compound EC50),[11],37.7×
same,SI (CC50/EC50),[11],"1,311"
same,EC50,[11],0.036 ± 0.014 µM
same,EC90,[11],0.096 ± 0.037 µM

# Reference: PMC11459966, “Oral pharmacokinetics and efficacy of oral phospholipid remdesivir nucleoside prodrugs against SARS-CoV-2 in mice” (Antimicrobial Agents and Chemotherapy, 2024)
